According to patent US12226412B2, “Heteroaryl-ketone fused azadecalin glucocorticoid receptor modulators” (Corcept Therapeutics, Inc., priority 2012, dated 2025):
Read-outs that look alike come from different tables or passages of the source.

What was measured:
[1] = biological target: T1, human recombinant GR (Homo sapiens, UniProt P04150); experiment: Human glucocorticoid receptor (GR) fluorescence polarisation (FP) binding assay
T1 construct: purchased PanVera P2812
T1 sequence (P04150 1-777): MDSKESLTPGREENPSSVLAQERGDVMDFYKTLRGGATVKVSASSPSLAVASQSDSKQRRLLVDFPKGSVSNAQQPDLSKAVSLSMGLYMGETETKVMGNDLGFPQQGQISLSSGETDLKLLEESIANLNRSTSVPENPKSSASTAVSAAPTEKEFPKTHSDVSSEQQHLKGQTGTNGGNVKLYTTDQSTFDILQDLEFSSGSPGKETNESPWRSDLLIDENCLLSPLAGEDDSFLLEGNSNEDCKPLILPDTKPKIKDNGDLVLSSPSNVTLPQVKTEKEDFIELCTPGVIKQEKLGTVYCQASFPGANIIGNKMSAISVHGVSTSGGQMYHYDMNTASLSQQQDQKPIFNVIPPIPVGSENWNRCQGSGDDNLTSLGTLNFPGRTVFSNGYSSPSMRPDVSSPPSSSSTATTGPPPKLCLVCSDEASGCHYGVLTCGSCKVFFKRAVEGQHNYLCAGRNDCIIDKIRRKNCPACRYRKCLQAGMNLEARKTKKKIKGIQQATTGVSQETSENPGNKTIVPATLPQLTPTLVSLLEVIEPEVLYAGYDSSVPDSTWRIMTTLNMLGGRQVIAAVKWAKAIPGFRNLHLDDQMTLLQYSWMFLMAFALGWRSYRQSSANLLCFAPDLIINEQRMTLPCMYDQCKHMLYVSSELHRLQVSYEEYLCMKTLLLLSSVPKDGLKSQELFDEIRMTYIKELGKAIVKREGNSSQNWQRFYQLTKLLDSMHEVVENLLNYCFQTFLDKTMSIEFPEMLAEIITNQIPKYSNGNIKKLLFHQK
How it was run: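 Competition fluorescence polarisation: 0.5 nM GS Red labelled glucocorticoid and 1 nM recombinant human GR with 8-point half-log compound series, 1% DMSO, 4 h room temperature, potassium phosphate pH 7.4 buffer with molybdate, EDTA, DTT. Affinity derived from the drop in polarisation, normalised to blank wells.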

[2] = test system: induction of TAT by dexamethasone in HepG2 cells; experiment: HepG2 tyrosine aminotransferase (TAT) assay; assay type: cell-based, human
[3] = human recombinant GR, fluorescence polarisation binding assay, read-out: GR binding
[4] = HepG2 cells, challenge of 100 nM dexamethasone, Ki from IC50 by Cheng and Prusoff equation

Structure (SMILES) | Ki [1, 3] [nM] | Ki [2, 4] [nM] | Ki [1] [nM] | Ki [2] [nM]
N#Cc1ccc(CS(=O)(=O)N2CCC3=Cc4c(cnn4-c4ccc(F)cc4)C[C@]3(C(=O)c3nccs3)C2)cc1 [Example 5B, (R)-4-(((1-(4-fluorophenyl)-4a-(thiazole-2-carbonyl)-4a,5,7,8-tetrahydro-1H-pyrazolo[3,4-g]isoquinolin-6 (4H)-yl)sulfonyl)methyl)benzonitrile] | < 0.5 | ≥ 100 |  | 
O=C(c1cncs1)[C@]12Cc3cnn(-c4ccc(F)cc4)c3C=C1CCN(S(=O)(=O)c1ccc(C(F)(F)F)cc1)C2 [Example 5I, (R)-(1-(4-fluorophenyl)-6-((4-(trifluoromethyl)phenyl)sulfonyl)-4,4a,5,6,7,8-hexahydro-1H-pyrazolo[3,4-g]isoquinolin-4a-yl)(thiazol-5-yl)methanone] |  |  | < 0.5 | > 100
O=C(c1ccccn1)[C@]12Cc3cnn(-c4ccc(F)cc4)c3C=C1CCN(S(=O)(=O)c1ccc(F)c(C(F)(F)F)c1)C2 [Example 2P, (R)-(6-((4-fluoro-3-(trifluoromethyl)phenyl)sulfonyl)-1-(4-fluorophenyl)-4,4a,5,6,7,8-hexahydro-1H-pyrazolo[3,4-g]isoquinolin-4a-yl)(pyridin-2-yl)methanone] |  |  | 0.5 to 1 | < 20
O=C(c1nccs1)[C@]12Cc3cnn(-c4ccc(F)cc4)c3C=C1CCN(S(=O)(=O)c1ccc(F)cc1)C2 [Example 5, (R)-(1-(4-fluorophenyl)-6-((4-fluorophenyl)sulfonyl)-4,4a,5,6,7,8-hexahydro-1H-pyrazolo[3,4-g]isoquinolin-4a-yl)(thiazol-2-yl)methanone] | < 0.5 | 20 to 100 |  | 
O=C(c1cccnc1)[C@]12Cc3cnn(-c4ccc(F)cc4)c3C=C1CCN(S(=O)(=O)c1ccc(C(F)(F)F)cc1)C2 [Example 1B, (R)-(1-(4-fluorophenyl)-6-((4-(trifluoromethyl)phenyl)sulfonyl)-4,4a,5,6,7,8-hexahydro-1H-pyrazolo[3,4-g]isoquinolin-4a-yl)(pyridin-3-yl)methanone] |  |  | 0.5 to 1 | > 100
Cn1cc(S(=O)(=O)N2CCC3=Cc4c(cnn4-c4ccc(F)cc4)C[C@]3(C(=O)c3cc(C(F)(F)F)ccn3)C2)cn1 [Example 18, (R)-(1-(4-fluorophenyl)-6-((1-methyl-1H-pyrazol-4-yl)sulfonyl)-4,4a,5,6,7,8-hexahydro-1H-pyrazolo[3,4-g]isoquinolin-4a-yl)(4-(trifluoromethyl)pyridin-2-yl)methanone] | < 0.5 | < 20 |  | 
COc1ccc(S(=O)(=O)N2CCC3=Cc4c(cnn4-c4ccc(F)cc4)C[C@]3(C(=O)c3ccccn3)C2)cc1 [Example 2I, (R)-(1-(4-fluorophenyl)-6-((4-methoxyphenyl)sulfonyl)-4,4a,5,6,7,8-hexahydro-1H-pyrazolo[3,4-g]isoquinolin-4a-yl)(pyridin-2-yl)methanone] | < 0.5 | < 20 |  | 
O=C(c1ccccn1)[C@]12Cc3cnn(-c4ccc(F)cc4)c3C=C1CCN(S(=O)(=O)c1ccc(Cl)c(Cl)c1)C2 [Example 11AF, (R)-(6-((3,4-dichlorophenyl)sulfonyl)-1-(4-fluorophenyl)-4,4a,5,6,7,8-hexahydro-1H-pyrazolo[3,4-g]isoquinolin-4a-yl)(pyridin-2-yl)methanone] |  |  | < 0.5 | < 20
O=C(c1ccccn1)[C@]12Cc3cnn(-c4ccc(F)cc4)c3C=C1CCN(S(=O)(=O)c1ccc(N3CCCC3)cc1)C2 [Example 10, (R)-(1-(4-fluorophenyl)-6-((4-(pyrrolidin-1-yl)phenyl)sulfonyl)-4,4a,5,6,7,8-hexahydro-1H-pyrazolo[3,4-g]isoquinolin-4a-yl)(pyridin-2-yl)methanone] | < 0.5 | ≥ 100 |  | 

More lines, main results first:

Ki [1, 3] [nM] | Structure (SMILES) | Ki [2, 4] [nM] | Ki [1] [nM] | Ki [2] [nM]
> 1 | O=C(c1ccnc(N2CCCC2)c1)[C@]12Cc3cnn(-c4ccc(F)cc4)c3C=C1CCN(S(=O)(=O)c1ccc(F)c(F)c1)C2 [Example 11BH, (R)-(6-((3,4-difluorophenyl)sulfonyl)-1-(4-fluorophenyl)-4,4a,5,6,7,8-hexahydro-1H-pyrazolo[3,4-g]isoquinolin-4a-yl)(2-(pyrrolidin-1-yl)pyridin-4-yl)methanone] | ≥ 100 |  | 
< 0.5 | Cc1[nH]ncc1S(=O)(=O)N1CCC2=Cc3c(cnn3-c3ccc(F)cc3)C[C@]2(C(=O)c2cc(C(F)(F)F)ccn2)C1 [Example 11BK, (R)-(1-(4-fluorophenyl)-6-((5-methyl-1H-pyrazol-4-yl)sulfonyl)-4,4a,5,6,7,8-hexahydro-1H-pyrazolo[3,4-g]isoquinolin-4a-yl)(4-(trifluoromethyl)pyridin-2-yl)methanone] | < 20 |  | 
< 0.5 | Cc1cccc(S(=O)(=O)N2CCC3=Cc4c(cnn4-c4ccc(F)cc4)C[C@]3(C(=O)c3nccn3C)C2)c1 [Example 13A, (R)-(1-(4-fluorophenyl)-6-(m-tolylsulfonyl)-4,4a,5,6,7,8-hexahydro-1H-pyrazolo [3,4-g]isoquinolin-4a-yl)(1-methyl-1H-imidazol-2-yl)methanone] | 20 to 100 |  | 
> 1 | CCn1nncc1S(=O)(=O)N1CCC2=Cc3c(cnn3-c3ccc(F)cc3)C[C@]2(C(=O)c2ccccn2)C1 [Example 11CI, (R)-(6-((1-ethyl-1H-1,2,3-triazol-5-yl)sulfonyl)-1-(4-fluorophenyl)-4,4a,5,6,7,8-hexahydro-1H-pyrazolo[3,4-g]isoquinolin-4a-yl)(pyridin-2-yl)methanone] | 20 to 100 |  | 
< 0.5 | O=C(c1ccccn1)[C@]12Cc3cnn(-c4ccc(F)cc4)c3C=C1CCN(S(=O)(=O)c1ccnc(C(F)(F)F)c1)C2 [Example 11BE, (R)-(1-(4-fluorophenyl)-6-((2-(trifluoromethyl)pyridin-4-yl)sulfonyl)-4,4a,5,6,7,8-hexahydro-1H-pyrazolo[3,4-g]isoquinolin-4a-yl)(pyridin-2-yl)methanone] | 20 to 100 |  | 
< 0.5 | Cc1ccnc(C(=O)[C@]23Cc4cnn(-c5ccc(F)cc5)c4C=C2CCN(S(=O)(=O)c2cccc(C(=O)O)c2)C3)c1 [Example 11AW, (R)-3-((1-(4-fluorophenyl)-4a-(4-methylpicolinoyl)-4a,5,7,8-tetrahydro-1H-pyrazolo[3,4-g]isoquinolin-6 (4H)-yl)sulfonyl)benzoic acid] | ≥ 100 |  | 
0.5 to 1 | CCCn1ncc(S(=O)(=O)N2CCC3=Cc4c(cnn4-c4ccc(F)cc4)C[C@]3(C(=O)c3cc(C(F)(F)F)ccn3)C2)n1 (single isomer, unassigned) [Example 11DC] | < 20 |  | 
< 0.5 | Cc1ccnc(C(=O)[C@]23Cc4cnn(-c5ccc(F)cc5)c4C=C2CCN(S(=O)(=O)c2cnc4c(c2)OCCN4C)C3)c1 [Example 11AM, (R)-(1-(4-fluorophenyl)-6-((4-methyl-3,4-dihydro-2H-pyrido[3,2-b][1,4]oxazin-7-yl)sulfonyl)-4,4a,5,6,7,8-hexahydro-1H-pyrazolo[3,4-g]isoquinolin-4a-yl)(4-methylpyridin-2-yl)methanone] | < 20 |  | 
< 0.5 | COc1ccc(S(=O)(=O)N2CCC3=Cc4c(cnn4-c4ccc(F)cc4)C[C@]3(C(=O)c3ccccn3)C2)cc1F [Example 11D, (R)-(6-((3-fluoro-4-methoxyphenyl)sulfonyl)-1-(4-fluorophenyl)-4,4a,5,6,7,8-hexahydro-1H-pyrazolo[3,4-g]isoquinolin-4a-yl)(pyridin-2-yl)methanone] | < 20 |  | 
< 0.5 | CC(C)n1cc(S(=O)(=O)N2CCC3=Cc4c(cnn4-c4ccc(F)cc4)C[C@]3(C(=O)c3ccccn3)C2)cn1 [Example 11CD, (R)-(1-(4-fluorophenyl)-6-((1-isopropyl-1H-pyrazol-4-yl)sulfonyl)-4,4a,5,6,7,8-hexahydro-1H-pyrazolo[3,4-g]isoquinolin-4a-yl)(pyridin-2-yl) methanone] | < 20 |  | 
< 0.5 | Cc1ccnc(C(=O)[C@]23Cc4cnn(-c5ccc(F)cc5)c4C=C2CCN(S(=O)(=O)c2ccc4c(c2)CC(=O)N4C)C3)c1 [Example 11AO, (R)-5-((1-(4-fluorophenyl)-4a-(4-methylpicolinoyl)-4a,5,7,8-tetrahydro-1H-pyrazolo[3,4-g]isoquinolin-6 (4H)-yl)sulfonyl)-1-methylindolin-2-one] | < 20 |  | 
< 0.5 | Cc1ccc(S(=O)(=O)N2CCC3=Cc4c(cnn4-c4ccc(F)cc4)C[C@]3(C(=O)c3ccccn3)C2)cc1Cl [Example 11BG, (R)-(6-((3-chloro-4-methylphenyl)sulfonyl)-1-(4-fluorophenyl)-4,4a,5,6,7,8-hexahydro-1H-pyrazolo[3,4-g]isoquinolin-4a-yl)(pyridin-2-yl)methanone] | < 20 |  | 
